Read-outs that look alike come from different tables or passages of the source. Positions of bridges follow the written chain, without caps; N, C: chain ends. No end group written: not given here.
What was measured:
[1] = molecular target: human plasma kallikrein (Homo sapiens, UniProt P03952); experiment: Kallikrein inhibition assay (residual HPK activity, fluorogenic substrate Z-Phe-Arg-AMC); type: biochemical
[2] = the molecule shown is the open-chain precursor, crosslinker bond, 31-membered ring
[3] = TBMB/NH4HCO3, aq NH4HCO3 (pH 8)/MeCN, 1.67 mM

Chain of human plasma kallikrein (P03952 391-638 limits assumed): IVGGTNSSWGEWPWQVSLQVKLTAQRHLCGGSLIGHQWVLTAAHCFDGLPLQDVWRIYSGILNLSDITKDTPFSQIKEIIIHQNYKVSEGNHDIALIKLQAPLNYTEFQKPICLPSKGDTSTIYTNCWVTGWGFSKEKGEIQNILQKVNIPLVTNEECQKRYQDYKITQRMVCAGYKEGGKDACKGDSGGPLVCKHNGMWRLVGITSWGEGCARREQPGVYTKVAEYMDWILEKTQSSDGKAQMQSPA
Chain of human plasma kallikrein (P03952 20-390 partner limits assumed): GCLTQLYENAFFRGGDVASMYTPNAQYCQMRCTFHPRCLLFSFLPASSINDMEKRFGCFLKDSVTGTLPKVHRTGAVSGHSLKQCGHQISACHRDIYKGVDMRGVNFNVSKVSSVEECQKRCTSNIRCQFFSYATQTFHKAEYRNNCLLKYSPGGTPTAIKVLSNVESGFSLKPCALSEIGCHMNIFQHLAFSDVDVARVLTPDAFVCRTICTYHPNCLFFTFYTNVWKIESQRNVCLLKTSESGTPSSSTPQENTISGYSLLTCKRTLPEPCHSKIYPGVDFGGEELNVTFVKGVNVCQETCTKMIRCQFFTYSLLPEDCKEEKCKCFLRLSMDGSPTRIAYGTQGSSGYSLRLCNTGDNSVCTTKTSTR

| Substance | ring closure, yield after HPLC [2, 3] [%] | also measured |
| --- | --- | --- |
| 13: stereochemically scrambled bicyclic peptide mixture from cyclisation of 12 with trithiol 2 (ACSDRFRNCPADEALCG; linker 2-9-16 via 1,3,5‑tris(mercaptomethyl)benzene; also: mixture of 8 stereoisomers (D/L at Cys2, Cys9, Cys16)) [compound 13] |  | IC50 ([1]; crude reaction mixture of the conversion of 12 to 13, before purification, same kallikrein inhibition assay): 0.238 ± 0.021 µM; IC50 ([1]; purified peptide, HPK incubated 30 min at room temperature with bicyclic peptide, substrate Z-Phe-Arg-AMC, Tris 10 mM pH 7.4, NaCl, MgCl2, CaCl2, 0.1% BSA, 0.01% Triton X-100, 5% DMSO, ex 355 / em 460 nm, logistic fit): 0.144 ± 0.031 µM |
| H-Ala-Cys-Ser-Asp-Arg-Phe-Arg-Asn-Cys-Pro-Ala-Asp-Glu-Ala-Leu-Cys-Gly-NH2? | 29 |  |
| H-Ala-Cys-Ser-Asp-Arg-Phe-Arg-Asn-Cys-Pro-Ala-Asp-Glu-Ala-Leu-dCys-Gly-NH2? | 10 |  |
| H-Ala-Cys-Ser-Asp-Arg-Phe-Arg-Asn-dCys-Pro-Ala-Asp-Glu-Ala-Leu-Cys-Gly-NH2? | 16 |  |
| H-Ala-Cys-Ser-Asp-Arg-Phe-Arg-Asn-dCys-Pro-Ala-Asp-Glu-Ala-Leu-dCys-Gly-NH2? | 24 |  |
| H-Ala-Dha-Ser-Asp-Arg-Phe-Arg-Asn-Dha-Pro-Ala-Asp-Glu-Ala-Leu-Dha-Gly-NH2 |  | ring closure, yield after HPLC ([2]; 1,3,5-tris(mercaptomethyl)benzene/K2CO3, H2O/DMF 1:1, 1.15 mM, 37.0 °C): 43% |
| H-Ala-dCys-Ser-Asp-Arg-Phe-Arg-Asn-Cys-Pro-Ala-Asp-Glu-Ala-Leu-Cys-Gly-NH2? | 26 |  |
| H-Ala-dCys-Ser-Asp-Arg-Phe-Arg-Asn-Cys-Pro-Ala-Asp-Glu-Ala-Leu-dCys-Gly-NH2? | 16 |  |
| H-Ala-dCys-Ser-Asp-Arg-Phe-Arg-Asn-dCys-Pro-Ala-Asp-Glu-Ala-Leu-Cys-Gly-NH2? | 26 |  |
| H-Ala-dCys-Ser-Asp-Arg-Phe-Arg-Asn-dCys-Pro-Ala-Asp-Glu-Ala-Leu-dCys-Gly-NH2? | 26 |  |

— article PMC4847484, “Chemical generation and modification of peptides containing multiple dehydroalanines” (Chemical Communications (Cambridge, England), 2015)
